Measured values as given in ChEMBL document CHEMBL1123274, “Azasteroids: structure-activity relationships for inhibition of 5 alpha-reductase and of androgen receptor binding” (J Med Chem, 1986).

How the values were obtained:
[1] = molecular target: T1, Androgen receptor (Rattus norvegicus, UniProt P15207); assay: In vitro antagonist activity against rat prostatic androgen receptor (AR)
T1 sequence (P15207 whole entry): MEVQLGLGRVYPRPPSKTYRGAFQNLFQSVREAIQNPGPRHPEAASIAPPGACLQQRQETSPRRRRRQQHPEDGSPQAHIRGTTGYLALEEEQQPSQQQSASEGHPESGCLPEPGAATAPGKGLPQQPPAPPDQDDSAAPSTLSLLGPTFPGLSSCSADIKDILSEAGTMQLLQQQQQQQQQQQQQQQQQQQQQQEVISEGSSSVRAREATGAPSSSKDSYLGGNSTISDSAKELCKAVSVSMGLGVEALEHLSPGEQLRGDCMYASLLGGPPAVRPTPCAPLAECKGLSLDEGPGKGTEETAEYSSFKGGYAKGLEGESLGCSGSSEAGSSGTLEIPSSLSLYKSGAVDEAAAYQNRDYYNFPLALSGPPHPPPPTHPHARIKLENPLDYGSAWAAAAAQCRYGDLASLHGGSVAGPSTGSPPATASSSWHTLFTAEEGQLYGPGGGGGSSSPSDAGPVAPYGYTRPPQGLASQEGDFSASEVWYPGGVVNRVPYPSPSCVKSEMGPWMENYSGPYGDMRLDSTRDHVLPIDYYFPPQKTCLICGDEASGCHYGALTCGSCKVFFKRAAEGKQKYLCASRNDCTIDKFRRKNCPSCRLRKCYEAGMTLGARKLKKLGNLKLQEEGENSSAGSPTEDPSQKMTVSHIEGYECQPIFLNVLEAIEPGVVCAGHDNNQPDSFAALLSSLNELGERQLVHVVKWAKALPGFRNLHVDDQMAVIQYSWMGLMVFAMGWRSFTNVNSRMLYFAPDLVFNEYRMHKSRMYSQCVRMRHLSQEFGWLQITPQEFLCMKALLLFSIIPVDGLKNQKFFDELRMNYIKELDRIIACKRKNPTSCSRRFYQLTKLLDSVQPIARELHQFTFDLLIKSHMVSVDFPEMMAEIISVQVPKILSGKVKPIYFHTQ

[2] = molecular target: T2, Steroid 5-alpha-reductase (Rattus norvegicus, UniProt P24008+P31214); assay: In vitro inhibitory activity against rat prostatic steroid 5-alpha-reductase; format: protein assay
T2 sequence (P24008 whole entry): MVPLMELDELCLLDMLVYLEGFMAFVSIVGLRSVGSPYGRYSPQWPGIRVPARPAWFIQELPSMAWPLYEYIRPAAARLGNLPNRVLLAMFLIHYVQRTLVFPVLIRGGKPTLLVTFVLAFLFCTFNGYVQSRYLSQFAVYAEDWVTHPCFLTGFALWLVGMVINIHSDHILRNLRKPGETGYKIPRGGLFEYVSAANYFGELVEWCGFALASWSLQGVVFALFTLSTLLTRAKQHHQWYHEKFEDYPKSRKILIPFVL
T2 sequence (P31214 whole entry): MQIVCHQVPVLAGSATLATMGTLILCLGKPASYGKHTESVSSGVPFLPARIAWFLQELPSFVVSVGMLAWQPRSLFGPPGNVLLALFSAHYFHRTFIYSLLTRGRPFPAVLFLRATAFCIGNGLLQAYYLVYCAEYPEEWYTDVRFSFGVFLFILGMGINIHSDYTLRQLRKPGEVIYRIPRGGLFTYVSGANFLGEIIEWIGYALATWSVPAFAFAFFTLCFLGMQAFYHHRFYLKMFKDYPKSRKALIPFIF

| Structure (SMILES) | IC50 [1] | IC50 [2] |
| --- | --- | --- |
| CC(C)N(C(=O)[C@H]1CC[C@H]2[C@@H]3CCC4N(C)C(=O)C=C[C@]4(C)[C@H]3CC[C@]12C)C(C)C (stereo partly drawn) | 10000 nM | 430 nM |
| C[C@]12CC[C@H]3[C@@H](CCC4NC(=O)CC[C@@]43C)[C@@H]1CC[C@@H]2C(=O)[O-].[K+] (stereo partly drawn) | > 100000 nM | 25 nM |
| CC(=O)[C@H]1[C@H](C)C[C@H]2[C@@H]3CCC4N(C)C(=O)CC[C@]4(C)[C@H]3CC[C@@]21C (stereo partly drawn) | 290 nM | 3.4 nM |
| CC(=O)N[C@@H]1CC[C@H]2[C@@H]3CCC4N(C)C(=O)CC[C@]4(C)[C@H]3CC[C@]12C (stereo partly drawn) | 40000 nM | 58 nM |
| CCN(CC)C(=O)[C@H]1CC[C@H]2[C@@H]3CC[C@H]4N(C)C(=O)[C@H](O)C[C@]4(C)[C@H]3CC[C@]12C | 3200 nM | 460 nM |
| CCN(CC)C(=O)[C@H]1CC[C@H]2[C@@H]3CC[C@H]4N(C)C(=O)C[C@H](C)[C@]4(C)[C@H]3CC[C@]12C | 16000 nM | 86 nM |
| CCCCCCCCN(CCCCCCCC)C(=O)[C@H]1CC[C@H]2[C@@H]3CCC4N(C)C(=O)CC[C@]4(C)[C@H]3CC[C@]12C (stereo partly drawn) | 46000 nM | 33 nM |
| CC(C)N(C(=O)[C@H]1CC[C@H]2[C@@H]3CC[C@H]4N(C)C(=O)CC[C@]4(C)[C@H]3CC[C@]12C)C(C)C | 14000 nM | 3.5 nM |
| CCN(CC)C(=O)[C@H]1CC[C@H]2[C@@H]3CC=C4N(O)C(=O)CC[C@]4(C)[C@H]3CC[C@]12C | 190 nM | 220 nM |
| CCC(C)C(=O)[C@H]1CC[C@H]2[C@@H]3CCC4NC(=O)CC[C@]4(C)[C@H]3CC[C@]12C (stereo partly drawn) | > 100000 nM | 1.2 nM |
| CCN(CC)C(=O)CCC(C)[C@H]1CC[C@H]2[C@@H]3CCC4N(C)C(=O)CC[C@]4(C)[C@H]3CC[C@]12C (stereo partly drawn) | 430 nM | 3.4 nM |
| CCN(CC)C(=O)/C=C1\CC[C@H]2[C@@H]3CCC4N(C)C(=O)CC[C@]4(C)[C@H]3CC[C@]12C (stereo partly drawn) | 930 nM | 2.5 nM |
| CC(CO)[C@H]1CC[C@H]2[C@@H]3CCC4N(C)C(=O)CC[C@]4(C)[C@H]3CC[C@]12C (stereo partly drawn) | 860 nM | 3.8 nM |
| COC(CNC(=O)[C@H]1CC[C@H]2[C@@H]3CCC4N(C)C(=O)CC[C@]4(C)[C@H]3CC[C@]12C)OC (stereo partly drawn) | 790 nM | 4.6 nM |
| CCN(CC)C(=O)[C@H]1CC[C@H]2[C@@H]3CC[C@@H]4NC(=O)CC[C@]4(C)[C@H]3CC[C@]12C (stereo in doubt; 79) | > 10000 nM | > 1000 nM |
| CCN(CC)C(=O)[C@H]1CC[C@H]2[C@@H]3CC=C4N(N)C(=O)CC[C@]4(C)[C@H]3CC[C@]12C | 5400 nM | 36 nM |
| CCC(C)C(=O)[C@H]1CC[C@H]2[C@@H]3CCC4NC(=O)C=C[C@]4(C)[C@H]3CC[C@]12C (stereo partly drawn) | > 100000 nM | 50 nM |
| CC(C#N)[C@H]1CC[C@H]2[C@@H]3CCC4N(C)C(=O)CC[C@]4(C)[C@H]3CC[C@]12C (stereo partly drawn) | 290 nM | 7.6 nM |
| CN1C(=O)C=C[C@@]2(C)C1CC[C@@H]1[C@@H]2CC[C@@]2(C)[C@H]1CC[C@@]21CCCO1 (stereo partly drawn) | 110 nM | 430 nM |
| CC(C)(C)NC(=O)[C@H]1CC[C@H]2[C@@H]3CCC4NC(=O)CC[C@]4(C)[C@H]3CC[C@]12C (stereo partly drawn) | > 100000 nM | 6.3 nM |

Results, then the molecule that gave them:

| IC50 [1] | IC50 [2] | Structure (SMILES) |
| --- | --- | --- |
| > 100000 nM | 140 nM | CCN(CC)C(=O)[C@H]1CC[C@H]2[C@@H]3CC[C@H]4NC(=O)C=C[C@]4(C)[C@H]3CC[C@]12C |
| 13000 nM | 1170 nM | CCN1C(=O)CC[C@@]2(C)C1CC[C@@H]1[C@@H]2CC[C@@]2(C)[C@H]1CC[C@@]21CCCO1 (stereo partly drawn) |
| 8600 nM | 16 nM | CC(=O)[C@H]1[C@@H](C)C[C@H]2[C@@H]3CCC4N(C)C(=O)CC[C@]4(C)[C@H]3CC[C@@]21C (stereo partly drawn) |
| 9100 nM | 37 nM | CN1C(=O)CC[C@@]2(C)C1CC[C@H]1[C@@H]3CC[C@H](C(=O)[O-])[C@@]3(C)CC[C@@H]12.[Na+] (stereo partly drawn) |
| 3700 nM | 500 nM | CCN(CC)C(=O)[C@H]1CCC[C@H]2[C@@H]3CC[C@H]4N(C)C(=O)OC[C@]4(C)[C@H]3CC[C@]12C |
| 150 nM | 13 nM | CN1C(=O)C=C[C@@]2(C)C1CC[C@H]1[C@@H]3CC[C@H](C(=O)NC(C)(C)C)[C@@]3(C)CC[C@@H]12 (stereo partly drawn) |
| 1700 nM | 93 nM | CN1C(=O)CC[C@@]2(C)C1CC[C@H]1[C@@H]3CC[C@H](C(=O)NCCO)[C@@]3(C)CC[C@@H]12 (stereo partly drawn) |
| 1400 nM | 270 nM | CC(=O)N[C@H]1CC[C@H]2[C@@H]3CCC4N(C)C(=O)CC[C@]4(C)[C@H]3CC[C@]12C (stereo partly drawn) |
| 680 nM | 0.56 nM | CN1C(=O)CC[C@@]2(C)C1CC[C@H]1[C@@H]3CC[C@H](C(=O)NC(C)(C)C)[C@@]3(C)CC[C@@H]12 (stereo partly drawn) |
| 48000 nM | 13 nM | CCN(CC)C(=O)C(C)[C@H]1CC[C@H]2[C@@H]3CCC4N(C)C(=O)CC[C@]4(C)[C@H]3CC[C@]12C (stereo partly drawn) |
| 1100 nM | 12 nM | CCNC(=O)[C@H]1CC[C@H]2[C@@H]3CCC4N(C)C(=O)CC[C@]4(C)[C@H]3CC[C@]12C (stereo partly drawn) |
| 5200 nM | 0.13 nM | CCCCCCCCNC(=O)[C@H]1CC[C@H]2[C@@H]3CCC4NC(=O)CC[C@]4(C)[C@H]3CC[C@]12C (stereo partly drawn) |
| 25000 nM | 13 nM | CC(C(=O)[O-])[C@H]1CC[C@H]2[C@@H]3CC=C4N(C)C(=O)CC[C@]4(C)[C@H]3CC[C@]12C.[Na+] (stereo partly drawn) |
| 1100 nM | 38 nM | CNC(=O)[C@H]1CC[C@H]2[C@@H]3CCC4N(C)C(=O)CC[C@]4(C)[C@H]3CC[C@]12C (stereo partly drawn) |
| 420 nM | 1.9 nM | CCC(C)C(=O)[C@H]1CC[C@H]2[C@@H]3CCC4N(C)C(=O)CC[C@]4(C)[C@H]3CC[C@]12C (stereo partly drawn) |
| 21000 nM | 3.6 nM | CC(CCC(=O)[O-])[C@H]1CC[C@H]2[C@@H]3CCC4N(C)C(=O)CC[C@]4(C)[C@H]3CC[C@]12C.[Na+] (stereo partly drawn) |
| > 10000 nM | 400 nM | CCN(CC)C(=O)[C@H]1CC[C@H]2[C@@H]3CC[C@H]4N(NC=O)C(=O)CC[C@]4(C)[C@H]3CC[C@]12C |
| 2700 nM | 20 nM | CCN(CC)C(=O)[C@H]1CC[C@H]2[C@@H]3CC[C@H]4N(C)C(=O)[C@@H]5C[C@@H]5[C@]4(C)[C@H]3CC[C@]12C |
| 440 nM | 17 nM | CN1C(=O)CC[C@@]2(C)C1CC[C@H]1[C@@H]3CC[C@H](C(N)=O)[C@@]3(C)CC[C@@H]12 (stereo partly drawn) |
